Assay results published in patent US5624923A, “Tricyclic diazepine vasopressin antagonists and oxytocin antagonists” (priority 1995, dated 1997).
pIC50: −log10 of the molar value. Like-named read-outs stand apart in the source and are kept apart here.

What was measured:
[1] = target: T1, Rat Kidney Medullary V2 Receptors (Rattus norvegicus, UniProt Q00788); test: Binding Assay to Rat Kidney Medullary V2 Receptors; settings: for pIC50: rat kidney medulla membranes, read-out: V2 IC50
T1 construct: Medullary tissues from rat kidneys are dissected out; from tissue; host or cells: rat kidney medulla membranes
Description: Binding Assay to Rat Kidney Medullary V2 Receptors
Medullary tissues from rat kidneys are dissected out, cut into small pieces and soaked in a […] sodium chloride solution containing 1.0 mM EDTA with many changes of the liquid phase, until the solution is clear of blood. The tissue is homogenized in a 0.25M sucrose solution containing 1.0 mM EDTA and 0.1 mM PMSF using a Potter-Elvehjem homogenizer with a teflon pestle. The homogenate is filtered through several layers (4 layers) of cheese cloth. The filtrate is rehomogenized using a dounce homogenizer, with a tight fitting pestle. The final homogenate is centrifuged at 1500× g for 15 min. The nuclear pellet is discarded and the supernatant fluid recentrifuged at 40,000× g for 30 min. The resulting pellet formed contains a dark inner part with the exterior., slightly pink. The pink outer part is suspended in a small amount of 50.0 mM Tris. HCl buffer, pH 7.4. The protein content is determined by the Lowry's method (Lowry et al., J. Biol. Chem., 1953). The membrane suspension is stored at -70° C. in 50.0 mM Tris HCl, containing 0.2% inactivated BSA and 0.1 mM PMSF in aliquots of 1.0 ml containing 10.0 mg protein per ml of suspension until use in subsequent binding experiments.
(§1) The plates are left undisturbed on the bench top for 120 min to reach equilibrium. Non-specific binding is assessed in the presence of 1.0 μM of unlabeled ligand, added in 20 μl volume. For test compounds, these are solubilized in 50% dimethylsulfoxide (DMSO) and added in 20.0 μl volume to a final incubation volume of 200 μl. Upon completion of binding, the content of each well is filtered off, using a Brandel® cell Harvester (Gaithersburg, Md.). The radioactivity trapped on the filter disk by the ligand-receptor complex is assessed by liquid scintillation counting in a Packard LS Counter, with an efficiency of 65% for tritium. The data are analyzed for IC50 values by the LUNDON-2 program for competition (LUNDON SOFTWARE, Ohio).

[2] = target: T2, Rat Hepatic V1 Receptors (Rattus norvegicus, UniProt P30560); test: Binding Assay to Rat Hepatic V1 Receptors
T2 construct: Rat liver plasma membranes expressing the vasopressin V1 receptor subtypes; from tissue; host or cells: rat liver plasma membranes
Description: Binding Assay to Rat Hepatic V1 Receptors
Rat liver plasma membranes expressing the vasopressin V1 receptor subtypes are isolated by sucrose density gradient according to the method described by Lesko et al., (1973). These membranes are quickly suspended in 50.0 mM Tris.HCl buffer, pH 7.4, containing 0.2% bovine serum albumin (BSA) and 0.1 mM phenylmethylsulfonylfluoride (PMSF) and kept frozen at -70° C. until used in subsequent binding experiments. For binding experiments, the following is added to the wells of a ninety-six well format microtiter plate: 100 μl of 100.0 mM Tris.HCl buffer containing 10.0 mM MgCl2, 0.2% heat inactivated BSA and a mixture of protease inhibitors: leupeptin, 1.0 mg %; aprotinin, 1.0 mg %; 1,10-phenanthroiine,2.0 mg %; trypsin inhibitor, 10.0 mg % and 0.1 mM PMSF, 20.0 μl of [phenylalanyl-3,4,5, -^3 H] vasopressin (S.A. 45.1 Ci/mmole) at 0.8 nM, and the reaction initiated by the addition of 80 μl of tissue membranes containing 20 μg of tissue protein. The plates are kept undisturbed on the bench top at room temperature for 120 min. to reach equilibrium. Non-specific samples are assayed in the presence of 0.1 μM of the unlabeled antagonist phenylalanylvasopressin, added in 20.0 μl volume.
as §1, with “For” for “The plates are left undisturbed on the bench top for 120 min to reach equilibrium. Non-specific binding is assessed in the presence of 1.0 μM of unlabeled ligand, added in 20 μl volume. For”, “μl .” for “μl.”

[3] = test system: Vasopressin V1; test: Vasopressin V1 Antagonist Activity in Conscious Rats (vasopressin vasopressor response); assay type: in vivo, rat; parameters: Average Change: unit not given here; settings: SHR
Method in brief: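 Conscious rats are restrained supine, and under local 2% procaine a PE 10/20 cannula is passed through the ventral caudal tail artery into the lower abdominal aorta. The caudal vein is cannulated for intravenous dosing. Blood pressure is recorded with a Statham P23Db transducer, and vasopressin injections are repeated after compound dosing. Percent antagonism is calculated against the pre-drug vasopressor response taken as 100%.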

[4] = 10 mg/kg i.v., VAS 0.01 i.u./kg, 30 min
[5] = 10 mg/kg i.v., VAS 0.02 i.u./kg, 30 min
[6] = 20 mg/kg i.v., VAS 0.01 i.u./kg, 60 min
[7] = 20 mg/kg i.v., VAS 0.01 i.u./kg, 90 min
[8] = 20 mg/kg i.v., VAS 0.01 i.u./kg, 120 min
[9] = 20 mg/kg i.v., VAS 0.01 i.u./kg, 180 min
[10] = 20 mg/kg i.v., VAS 0.01 i.u./kg, 240 min
[11] = 20 mg/kg i.v., VAS 0.01 i.u./kg, 300 min
[12] = 20 mg/kg i.v., VAS 0.02 i.u./kg, 60 min
[13] = 20 mg/kg i.v., VAS 0.02 i.u./kg, 90 min
[14] = 20 mg/kg i.v., VAS 0.02 i.u./kg, 120 min
[15] = 20 mg/kg i.v., VAS 0.02 i.u./kg, 180 min
[16] = 20 mg/kg i.v., VAS 0.02 i.u./kg, 240 min
[17] = 20 mg/kg i.v., VAS 0.02 i.u./kg, 300 min
[18] = rat liver membranes; read-out: V1 IC50
[19] = 10 mg/kg i.v., VAS 0.01 i.u./kg, 60 min
[20] = 10 mg/kg i.v., VAS 0.01 i.u./kg, 90 min
[21] = 10 mg/kg i.v., VAS 0.01 i.u./kg, 120 min
[22] = 10 mg/kg i.v., VAS 0.01 i.u./kg, 180 min
[23] = 10 mg/kg i.v., VAS 0.01 i.u./kg, 240 min
[24] = 10 mg/kg i.v., VAS 0.01 i.u./kg, 300 min
[25] = 10 mg/kg i.v., VAS 0.02 i.u./kg, 60 min
[26] = 10 mg/kg i.v., VAS 0.02 i.u./kg, 90 min
[27] = 10 mg/kg i.v., VAS 0.02 i.u./kg, 120 min
[28] = 10 mg/kg i.v., VAS 0.02 i.u./kg, 180 min
[29] = 10 mg/kg i.v., VAS 0.02 i.u./kg, 240 min
[30] = 10 mg/kg i.v., VAS 0.02 i.u./kg, 300 min

T2 sequence (P30560 whole entry): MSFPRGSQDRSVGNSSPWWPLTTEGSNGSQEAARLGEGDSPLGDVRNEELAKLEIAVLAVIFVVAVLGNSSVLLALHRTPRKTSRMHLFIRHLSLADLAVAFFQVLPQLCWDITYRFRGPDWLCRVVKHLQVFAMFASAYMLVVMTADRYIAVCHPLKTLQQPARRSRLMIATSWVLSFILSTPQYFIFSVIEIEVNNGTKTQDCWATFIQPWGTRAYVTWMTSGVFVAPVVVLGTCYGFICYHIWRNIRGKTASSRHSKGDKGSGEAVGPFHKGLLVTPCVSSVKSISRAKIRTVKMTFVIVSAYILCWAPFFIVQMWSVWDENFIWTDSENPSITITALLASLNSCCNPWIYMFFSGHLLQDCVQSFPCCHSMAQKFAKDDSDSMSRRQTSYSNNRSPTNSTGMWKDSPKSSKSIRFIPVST
T1 sequence (Q00788 whole entry): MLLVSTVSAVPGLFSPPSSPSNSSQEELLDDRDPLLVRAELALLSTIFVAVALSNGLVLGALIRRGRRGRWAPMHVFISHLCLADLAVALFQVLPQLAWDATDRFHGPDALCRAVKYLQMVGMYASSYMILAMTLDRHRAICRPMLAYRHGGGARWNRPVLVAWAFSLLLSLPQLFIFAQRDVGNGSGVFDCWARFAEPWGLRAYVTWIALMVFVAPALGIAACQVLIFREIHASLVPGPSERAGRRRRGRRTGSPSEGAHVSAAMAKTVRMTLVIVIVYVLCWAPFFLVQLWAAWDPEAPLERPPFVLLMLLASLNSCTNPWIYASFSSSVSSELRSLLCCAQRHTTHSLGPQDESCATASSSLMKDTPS

Cc1c(CC(=O)Nc2ccc(C(=O)N3Cc4cccn4Cc4ccccc43)cc2)sc2ccccc12 [Example 87]
inhibition at 10 µM ([1]; 10 μM, rat): 80% | inhibition at 10 µM ([2]; 2 h; 10 μM, rat): 63% | % Inhibition [3, 4]: 20% | Average Change [3, 4]: 50 | % Inhibition [3, 5]: 14% | Average Change [3, 5]: 57 | % Inhibition [3, 6]: 77% | Average Change [3, 6]: 14.5 | % Inhibition [3, 7]: 61% | Average Change [3, 7]: 24.5 | % Inhibition [3, 8]: 58% | Average Change [3, 8]: 26 | % Inhibition [3, 9]: 58% | Average Change [3, 9]: 26.5 | % Inhibition [3, 10]: 54% | Average Change [3, 10]: 28.5 | % Inhibition [3, 11]: 52% | Average Change [3, 11]: 30 | % Inhibition [3, 12]: 51% | Average Change [3, 12]: 32.5 | % Inhibition [3, 13]: 50% | Average Change [3, 13]: 33.5 | % Inhibition [3, 14]: 47% | Average Change [3, 14]: 35.5 | % Inhibition [3, 15]: 44% | Average Change [3, 15]: 37.5 | % Inhibition [3, 16]: 38% | Average Change [3, 16]: 41 | % Inhibition [3, 17]: 27% | Average Change [3, 17]: 48.5

COc1cc(Cl)ccc1C(=O)Nc1ccc(C(=O)N2Cc3cccn3Cc3ccccc32)cc1 [Example 89, N-[4-(5H-Pyrrolo[2,1-c][1,4]benzodiazepin-10(11H)ylcarbonyl)phenyl]-4-chloro-2-methoxybenzamide]
pIC50 [1]: 8.10 | pIC50 [2, 18]: 7.64 | % Inhibition [3, 4]: 88% | Average Change [3, 4]: 5 | % Inhibition [3, 19]: 81% | Average Change [3, 19]: 7.5 | % Inhibition [3, 20]: 81% | Average Change [3, 20]: 7.5 | % Inhibition [3, 21]: 63% | Average Change [3, 21]: 15 | % Inhibition [3, 22]: 38% | Average Change [3, 22]: 25 | % Inhibition [3, 23]: 38% | Average Change [3, 23]: 25 | % Inhibition [3, 24]: 31% | Average Change [3, 24]: 27.5 | % Inhibition [3, 5]: 92% | Average Change [3, 5]: 5 | % Inhibition [3, 25]: 84% | Average Change [3, 25]: 10 | % Inhibition [3, 26]: 80% | Average Change [3, 26]: 12.5 | % Inhibition [3, 27]: 56% | Average Change [3, 27]: 27.5 | % Inhibition [3, 28]: 48% | Average Change [3, 28]: 32.5 | % Inhibition [3, 29]: 44% | Average Change [3, 29]: 35 | % Inhibition [3, 30]: 48% | Average Change [3, 30]: 32.5

O=C(Nc1ccc(C(=O)N2Cc3cccn3Cc3ccccc32)cc1)c1ccccc1C(F)(F)F [Example 91, N-[4-(5H-Pyrrolo[2,1-c][1,4]benzodiazepin-10(11H)-ylcarbonyl)phenyl]-2-(trifluoromethyl)benzamide]
pIC50 [1]: 7.66 | pIC50 [2, 18]: 7.59 | % Inhibition [3, 4]: 90% | Average Change [3, 4]: 5 | % Inhibition [3, 19]: 87% | Average Change [3, 19]: 6.5 | % Inhibition [3, 20]: 81% | Average Change [3, 20]: 9 | % Inhibition [3, 21]: 73% | Average Change [3, 21]: 13 | % Inhibition [3, 22]: 55% | Average Change [3, 22]: 22 | % Inhibition [3, 23]: 59% | Average Change [3, 23]: 20 | % Inhibition [3, 24]: 66% | Average Change [3, 24]: 16.5 | % Inhibition [3, 5]: 88% | Average Change [3, 5]: 7.5 | % Inhibition [3, 25]: 89% | Average Change [3, 25]: 7 | % Inhibition [3, 26]: 80% | Average Change [3, 26]: 12.5 | % Inhibition [3, 27]: 72% | Average Change [3, 27]: 17.5 | % Inhibition [3, 28]: 54% | Average Change [3, 28]: 29 | % Inhibition [3, 29]: 53% | Average Change [3, 29]: 29.5 | % Inhibition [3, 30]: 48% | Average Change [3, 30]: 32.5

Cc1ccccc1NC(=O)Nc1ccc(C(=O)N2Cc3cccn3Cc3ccccc32)cc1 [Example 116, 10,11-Dihydro-10-[4-[[[(2-methylphenyl]amino]-carbonl]amino]benzoyl]-5H-pyrrolo[2,1-c]-[1,4]benzodiazepine]
pIC50 [1]: 7.07 | pIC50 ([2]; read-out: V1 IC50; rat liver membranes): 6.55 | % Inhibition [3, 4]: 22% | Average Change [3, 4]: 22.5 | % Inhibition [3, 19]: 38% | Average Change [3, 19]: 18 | % Inhibition [3, 20]: 34% | Average Change [3, 20]: 19 | % Inhibition [3, 21]: 33% | Average Change [3, 21]: 19.5 | % Inhibition [3, 22]: 38% | Average Change [3, 22]: 18 | % Inhibition [3, 23]: 45% | Average Change [3, 23]: 16 | % Inhibition [3, 24]: 24% | Average Change [3, 24]: 22 | % Inhibition [3, 5]: 24% | Average Change [3, 5]: 36.5 | % Inhibition [3, 25]: 30% | Average Change [3, 25]: 33.5 | % Inhibition [3, 26]: 33% | Average Change [3, 26]: 32 | % Inhibition [3, 27]: 17% | Average Change [3, 27]: 40 | % Inhibition [3, 28]: 17% | Average Change [3, 28]: 40 | % Inhibition [3, 29]: 20% | Average Change [3, 29]: 38.5 | % Inhibition [3, 30]: 14% | Average Change [3, 30]: 41.5
